The results in this text go back to ChEMBL document CHEMBL1773029, “1-Substituted 4-(3-Hydroxyphenyl)piperazines Are Pure Opioid Receptor Antagonists” (ACS Med Chem Lett, 2010).

The first experiment deals with Delta-type opioid receptor (Homo sapiens) (UniProt P41143). The experiment can be described thus: Antagonist activity at human delta opioid receptor expressed in CHO cells assessed as inhibition of DPDPE stimulated [35S]GTPgammaS binding. It is filed as functional, cell-based. (GTPγS resists hydrolysis and so accumulates on activated G proteins.)
Sequence of Delta-type opioid receptor (Homo sapiens) (P41143 whole entry): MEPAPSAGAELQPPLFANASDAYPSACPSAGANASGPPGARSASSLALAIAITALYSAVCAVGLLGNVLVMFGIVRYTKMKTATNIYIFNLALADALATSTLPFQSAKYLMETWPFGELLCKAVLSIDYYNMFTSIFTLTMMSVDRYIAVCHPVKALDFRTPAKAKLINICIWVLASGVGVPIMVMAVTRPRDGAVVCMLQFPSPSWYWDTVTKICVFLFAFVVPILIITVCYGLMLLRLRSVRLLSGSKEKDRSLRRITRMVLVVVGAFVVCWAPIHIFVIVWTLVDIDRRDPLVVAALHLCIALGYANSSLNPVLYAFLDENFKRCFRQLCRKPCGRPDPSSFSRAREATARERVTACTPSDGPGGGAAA
In the case of `C[C@H]1CN(CCCc2ccccc2)C[C@H](C)N1c1cccc(O)c1`, the Ke was determined as 9000 nM.

For `C[C@H]1CN(c2cccc(O)c2)[C@@H](C)CN1CCCc1ccccc1`, the Ke came out at 23.4 nM.

Turning to `Oc1cccc(N2CCN(CCCc3ccccc3)CC2)c1`, the Ke is 34.3 nM.

As for `C[C@H]1CN(C)CCN1c1cccc(O)c1`, the Ke was more than 10000 nM.

`C[C@@H]1CN(c2cccc(O)c2)[C@@H](C)CN1CCCc1ccccc1`: the Ke came out at 55.3 nM.

For the compound `C[C@@H]1CN(CCCc2ccccc2)CCN1c1cccc(O)c1`, the Ke came out at 6.99 nM.

`C[C@H]1CN(CCCc2ccccc2)CC[C@@]1(C)c1cccc(O)c1`: the Ke was found to be 0.9 nM.

For `C[C@H]1CN(CCCc2ccccc2)CCN1c1cccc(O)c1`, the Ke is 13.4 nM.

Turning to `C[C@@H]1CN(CCCc2ccccc2)[C@@H](C)CN1c1cccc(O)c1`, the Ke turned out to be 180 nM.

For another experiment, the target named is Mu-type opioid receptor (Homo sapiens) (UniProt P35372). The experiment can be described thus: Antagonist activity at human mu opioid receptor expressed in CHO cells assessed as inhibition of DAMGO stimulated [35S]GTPgammaS binding. It is filed as functional, cell-based.
Sequence of Mu-type opioid receptor (Homo sapiens) (P35372 whole entry): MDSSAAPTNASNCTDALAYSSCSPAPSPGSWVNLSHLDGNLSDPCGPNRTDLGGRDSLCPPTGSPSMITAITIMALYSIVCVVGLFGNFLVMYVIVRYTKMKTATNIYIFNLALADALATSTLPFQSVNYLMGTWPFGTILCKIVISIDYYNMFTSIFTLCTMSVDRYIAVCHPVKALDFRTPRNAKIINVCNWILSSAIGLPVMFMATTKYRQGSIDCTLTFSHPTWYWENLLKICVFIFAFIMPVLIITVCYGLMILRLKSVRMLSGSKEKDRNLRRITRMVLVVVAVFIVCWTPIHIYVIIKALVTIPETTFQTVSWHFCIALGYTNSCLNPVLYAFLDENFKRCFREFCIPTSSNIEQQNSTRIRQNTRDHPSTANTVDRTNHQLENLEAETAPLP
With `C[C@H]1CN(CCCc2ccccc2)C[C@H](C)N1c1cccc(O)c1`, the Ke was 1650 nM.

For the compound `C[C@H]1CN(c2cccc(O)c2)[C@@H](C)CN1CCCc1ccccc1`, the Ke turned out to be 17.9 nM.

`C[C@H]1CN(C)CC[C@@]1(C)c1cccc(O)c1` (relative stereo): the Ke came to 29.3 nM.

`Oc1cccc(N2CCN(CCCc3ccccc3)CC2)c1`: the Ke came to 8.47 nM.

For the compound `C[C@H]1CN(C)CCN1c1cccc(O)c1`, the Ke amounted to 508 nM.

`C[C@@H]1CN(c2cccc(O)c2)[C@@H](C)CN1CCCc1ccccc1`: the Ke came to 6.14 nM.

With `C[C@@H]1CN(CCCc2ccccc2)CCN1c1cccc(O)c1`, the Ke amounted to 1.01 nM.

With `C[C@H]1CN(CCCc2ccccc2)CC[C@@]1(C)c1cccc(O)c1`, the Ke came to 0.1 nM.

For `C[C@H]1CN(CCCc2ccccc2)CCN1c1cccc(O)c1`, the Ke was found to be 0.88 nM.

With `C[C@@H]1CN(CCCc2ccccc2)[C@@H](C)CN1c1cccc(O)c1`, the Ke was determined as 18 nM.

In a further experiment the target is Kappa-type opioid receptor (Homo sapiens) (UniProt P41145). Description: Antagonist activity at human kappa opioid receptor expressed in CHO cells assessed as inhibition of U69,593 stimulated [35S]GTPgammaS binding. The format is functional, cell-based.
Sequence of Kappa-type opioid receptor (Homo sapiens) (P41145 whole entry): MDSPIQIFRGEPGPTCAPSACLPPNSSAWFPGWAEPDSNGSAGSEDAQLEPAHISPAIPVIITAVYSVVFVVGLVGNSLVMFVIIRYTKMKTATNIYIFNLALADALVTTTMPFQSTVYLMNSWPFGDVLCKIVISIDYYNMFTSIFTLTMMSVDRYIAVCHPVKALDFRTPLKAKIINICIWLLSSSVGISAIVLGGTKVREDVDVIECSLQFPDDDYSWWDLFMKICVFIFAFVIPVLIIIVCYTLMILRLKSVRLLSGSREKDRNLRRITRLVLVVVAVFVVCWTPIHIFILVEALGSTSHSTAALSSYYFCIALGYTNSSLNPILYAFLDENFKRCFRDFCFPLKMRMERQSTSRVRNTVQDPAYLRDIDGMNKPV
For `C[C@H]1CN(CCCc2ccccc2)C[C@H](C)N1c1cccc(O)c1`, the Ke was 123 nM.

As to `C[C@H]1CN(c2cccc(O)c2)[C@@H](C)CN1CCCc1ccccc1`, the Ke was found to be 19.5 nM.

On to `Oc1cccc(N2CCN(CCCc3ccccc3)CC2)c1`, for which the Ke worked out at 36.8 nM.

As for `C[C@H]1CN(C)CCN1c1cccc(O)c1`, the Ke came to 194 nM.

For `C[C@@H]1CN(c2cccc(O)c2)[C@@H](C)CN1CCCc1ccccc1`, the Ke turned out to be 4.25 nM.

`C[C@@H]1CN(CCCc2ccccc2)CCN1c1cccc(O)c1`: the Ke amounted to 1.57 nM.

Regarding `C[C@H]1CN(CCCc2ccccc2)CC[C@@]1(C)c1cccc(O)c1`, the Ke stood at 0.88 nM.

Regarding `C[C@H]1CN(CCCc2ccccc2)CCN1c1cccc(O)c1`, the Ke was 4.09 nM.

For the compound `C[C@@H]1CN(CCCc2ccccc2)[C@@H](C)CN1c1cccc(O)c1`, the Ke was 22.9 nM.
